Measured values published in US10414721B1, “Inhibitor of endocannabinoid cellular reuptake” (University of Bern, priority 2018, dated 2019).

Key:
[1] = system: AEA uptake in primary mouse cortical neurons; test: AEA uptake in primary mouse cortical neurons; format: cell-based; conditions: Cortical neurone
Description: (§1) All radioactivity-based AEA and 2-AG uptake and release assays performed in U937, and HMC-1 cells were carried out using two different assay formats as previously reported. AEA and 2-AG uptake assay in Neuro2a and primary mouse cortical neurons were performed with a different method disclosed in Chicca 2017.

ABHD6 = target: T1, ABHD6 (Mus musculus, UniProt Q8R2Y0); test: ABHD6 activity (ABPP and radioactivity-based hydrolytic assays); format: biochemical; conditions: ABPP in mouse brain homogenate and hydrolytic assays
T1 construct: membrane preparations obtained from mouse brains; from tissue; host or cells: mouse brain membranes
T1 sequence (Q8R2Y0 whole entry): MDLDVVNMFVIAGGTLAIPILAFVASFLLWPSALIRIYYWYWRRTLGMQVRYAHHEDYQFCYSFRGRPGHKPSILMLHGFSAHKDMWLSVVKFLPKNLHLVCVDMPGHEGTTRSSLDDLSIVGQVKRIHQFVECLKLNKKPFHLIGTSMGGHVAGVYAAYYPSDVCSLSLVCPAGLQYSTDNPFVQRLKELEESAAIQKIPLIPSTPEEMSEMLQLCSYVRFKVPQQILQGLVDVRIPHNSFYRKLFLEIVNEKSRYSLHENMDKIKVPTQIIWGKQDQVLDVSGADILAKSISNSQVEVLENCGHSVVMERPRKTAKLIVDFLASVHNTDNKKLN
Description: ABPP experiments were performed using membrane preparations obtained from mouse brains as described earlier.
FAAH, ABHDs, MAGL and COX-2 activity assays were performed using cell homogenates, human recombinant enzymes and mouse, rat and pig brain homogenates as previously described.

[2] = system: 2-AG uptake in U937 cells; test: 2-AG uptake inhibition in U937 cells; format: cell-based
Description: as §1

[3] = system: 2-AG uptake in Neuro2a cells; test: 2-AG uptake and hydrolysis in Neuro2a cells; format: cell-based, mouse
Description: as §1

[4] = target: fatty acid binding protein 5 (FABP5) (Homo sapiens, UniProt Q01469); test: FABP5 binding
Sequence of fatty acid binding protein 5 (FABP5) (Q01469 whole entry, species assumed): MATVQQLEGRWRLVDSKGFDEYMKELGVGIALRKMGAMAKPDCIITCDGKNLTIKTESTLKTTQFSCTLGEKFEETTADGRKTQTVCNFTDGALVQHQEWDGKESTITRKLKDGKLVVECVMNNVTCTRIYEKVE

mice = test: Formalin test; format: in vivo, mouse; conditions: comparable to indomethacin (5 mg/kg)
Description: (§2) WOBE437 was initially assessed in a battery of four individual tests typically associated with CB1 receptor activation in mice (nociception, locomotion, body temperature and cataleptic behavior), collectively referred to as the “tetrad”. Dose-response experiments identified 10 mg/kg as the lowest dose to elicit a moderate but complete tetrad in BALB/c mice upon intraperitoneal (i.p.) administration (FIGS. 3A-D). […] To assess whether the WOBE437-induced effects were CB1 receptor-mediated, mice were pre-treated with the selective antagonist/inverse agonist rimonabant (SR1). […] These experiments provided a proof-of-concept for the mechanism of action of WOBE437 as a novel “indirect CB1 receptor agonist”. In subsequent studies, the effects of WOBE437 in pain, inflammatory and anxiety models were investigated. […] Both effects were reversed by SR1.
(§3) WOBE437 and RX-055 were tested in independent laboratories, in different mouse strains and in multiple (behavioral) models for cannabimimetic, analgesic, anti-inflammatory and anxiolytic-effects in wild-type and phenotypical CB1-KO mice as described in Chicca 2017.

BALB/c male mice = test: Tetrad test after oral administration; format: in vivo, mouse; conditions: 50 mg/kg p.o.
Description: The tetrad test was performed in the following order: rectal temperature, catalepsy, locomotion and analgesia. Rectal temperature was measured before (basal) and 1 h post gavage administration by using a thermocouple probe (Physitemp Instruments Inc., USA) and results were reported as the difference (Δ) between both temperatures. The bar test was used to evaluated catalepsy by placing the mouse in an imposed position with both forelimbs resting on a bar of 4 cm high; the end point of catalepsy was considered when both front limbs were removed or remained over 120 s. Locomotor activity was determined by placing the mouse on a rotarod (Erweka, Germany) at 4 rpm, the latency to fall was measured with a cut-off time of 120 s. Each mouse was previously trained to walk over the rotarod for at least 120 s. Catalepsy and locomotion were measured in three trials. Analgesia was evaluated with the hot plate test, each mouse was placed in a 54-56° C. hot plate (Thermo Scientific, USA) with a Plexiglas cylinder, the latency to first nociceptive response (paw lick or foot shake) was measured.

CB1 receptors = test: Functional CB1 receptors in brain after repeated treatment; format: in vivo, mouse; conditions: 7 days of daily treatment
Description: CB1 and CB2 receptor binding assays [^35S]GTPγS assays were performed as previously described. WOBE437 was profiled in more detail in an extended CNS adverse drug reaction screening panel (CEREP).

C57BL6/N mice = test: Holeboard (HB) test; format: in vivo, mouse; conditions: 3 mg/kg, 1 h post injection
Description: as §2, §3

[5] = system: cell lines and human whole blood; test: NAE levels in cell lines and human whole blood; format: cell-based
Source text: WOBE437, AEA, 2-AG, other lipids and hormones were quantified by LC-MS/MS in different biological matrices (cells, human whole blood, rodent tissues) as reported in Chicca 2017.

[6] = Cell penetration (intracellular LC-MS/MS and PAMPA); format: in vitro ADME
Source text: Cell penetration was further investigated by quantifying intracellular levels of WOBE437 by LC-MS/MS and measuring its physicochemical distribution in the parallel artificial membrane permeability assay (PAMPA).

BALB/c mice [7] = test: Acetic acid-induced writhing test; format: in vivo, mouse; conditions: 5 and 10 mg/kg
Description: as §2, §3

BALB/c mice [8] = test: LPS-induced endotoxemia; format: in vivo, mouse; conditions: 5 and 10 mg/kg
Description: as §2, §3

AEA uptake in U937 cells = test: AEA uptake inhibition in U937 cells; format: cell-based
Description: Based on the natural product (2E,4E)-N-isobutylamidedodeca-2,4-dienamide from the medicinal plant E. purpurea as a starting point, a library of 634 of analogs and derivatives with varying alkyl chain length was synthesized, and structure of the head group moiety analyzed. All new derivatives were tested for AEA uptake inhibition in U937 cells using a high-content screening assay.
as §1

CCCCCCC/C=C/C=C/C(=O)NCCc1ccc(OC)c(OC)c1 [WOBE437, (2E,4E)-N-[2-(3,4-Dimethoxyphenyl)ethyl]dodeca-2,4-dienamide]
inhibition at 1 µM ([1]; 2-7 min of incubation): 50%
inhibition at 1 µM ([1]; 10-20 min of incubation): 20 to 35%
inhibition of ABHD6 (ABHD6): did not inhibit
Hill slope, 2-AG uptake [2]: −0.973
IC50 ([2]; Homo sapiens, U-937, 1 μM total 2-AG): 283 ± 121 nM
reduction of overall 2-AG uptake ([3]; 5 μM, 2 and 5 min incubation): 40%
effect on 2-AG uptake and hydrolysis ([3]; Neuro2a cells, time course): only inhibited 2-AG uptake but not hydrolysis
binding to FABP5 [4]: no binding
inflammatory pain and paw thickness (mice): reduced inflammatory pain and paw thickness
antinociception in tetrad (BALB/c male mice): significant antinociception
body temperature, catalepsy or motor coordination vs vehicle (BALB/c male mice): No statistical differences
latency of catalepsy (BALB/c male mice; 1 h, control 5.9±5.4): 10.5 ± 10.6 s
change in body temperature (BALB/c male mice; 1 h, control +0.1±0.8): −0.8±0.8 °C
number of functional CB1 receptors in the brain (CB1 receptors): did not affect
head dipping frequency (C57BL6/N mice): significantly increased
levels of other NAEs [5]: without altering the levels of other NAEs
cell membrane penetration [6]: does not significantly penetrate cell membranes
abdominal stretches in the acetic writhing test (BALB/c mice [7]): reduced number of abdominal stretches
effect in LPS-induced endotoxemia (BALB/c mice [8]): protective effects
residual AEA and 2-AG reuptake upon treatment (AEA uptake in U937 cells): 20-30%
selectivity for AEA uptake over FAAH / AEA hydrolysis (AEA uptake in U937 cells): 1000 fold
IC50 (AEA uptake in U937 cells; Homo sapiens, U-937, U937 cells, 100 nM total AEA): 10 ± 8 nM
Hill slope, AEA uptake (AEA uptake in U937 cells; U937 cells, multiphase AEA uptake assay): −0.715
type of AEA uptake inhibition (Michaelis-Menten analysis) (AEA uptake in U937 cells; intact U937 cells): competitive
reversibility of AEA uptake inhibition (AEA uptake in U937 cells; rapid dilution assay): reversible
